Read-outs that look alike come from different tables or passages of the source.
Tests used:
Test in all cases: In vitro enzyme inhibition assay (imipenem hydrolysis, UV 299 nm)
Assay type in all cases: biochemical
[1] = biological target: T1, IMP-1 (Serratia marcescens, UniProt P52699)
T1 construct: VIM-1; VIM-2
Description: (§1) In vitro enzyme inhibition assays: Enzyme inhibition assays are performed using purified MBL enzymes (NDM-1; VIM-1; VIM-2; IMP-1) in 10mM HEPES buffer pH 7.5 in 96-well microtiter plates. Imipenem (300µM) is used as substrates and its hydrolysis is followed at UV 299 nm during 10mn every 30 seconds using a Perkin Elmer Envision UV fluorescence plate reader. Hydrolysis rate data in presence of a range of inhibitors are analysed using Dotmatics database software and calculated IC50 values are converted to Ki values using the Cheng-Prusoff equation. Ki = IC50 / (1+([S]/Km) and where the Km values for […] are 70 µM, 1.5 µM, 9 µM and 25 µM respectively. Compound dilution is performed in DMSO. Mean Ki values from multiple experiments are presented. Results are shown in Table 1.

[2] = biological target: T2, VIM-2 (Escherichia coli, UniProt Q5U7L7); settings: read-out: Ki (µM) VIM-2; purified enzyme, 10mM HEPES pH 7.5, Imipenem 300µM; mean Ki from IC50 by Cheng-Prusoff
T2 construct: VIM-1; VIM-2
Description: as §1

[3] = biological target: T3, VIM-1 (Pseudomonas aeruginosa, UniProt A0A0F7KYQ8)
T3 construct: VIM-1; VIM-2; IMP-1)
Description: as §1

[4] = biological target: T4, NDM-1 (Klebsiella pneumoniae, UniProt C7C422)
T4 construct: VIM-1; VIM-2
T4 sequence (C7C422 29-270, looked up): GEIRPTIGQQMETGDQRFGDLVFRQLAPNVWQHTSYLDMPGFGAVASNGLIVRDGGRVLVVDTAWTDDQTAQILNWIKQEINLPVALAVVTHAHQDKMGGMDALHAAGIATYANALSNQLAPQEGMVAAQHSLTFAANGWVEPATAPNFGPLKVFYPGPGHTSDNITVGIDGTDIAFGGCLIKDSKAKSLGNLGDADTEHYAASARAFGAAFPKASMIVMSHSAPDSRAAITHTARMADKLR
Description: as §1

[5] = read-out: Ki (µM) IMP-1; purified enzyme, 10mM HEPES pH 7.5, Imipenem 300µM; mean Ki from IC50 by Cheng-Prusoff
[6] = read-out: Ki (µM) VIM-1; purified enzyme, 10mM HEPES pH 7.5, Imipenem 300µM; mean Ki from IC50 by Cheng-Prusoff
[7] = read-out: Ki (µM) NDM-1; purified enzyme, 10mM HEPES pH 7.5, Imipenem 300µM; mean Ki from IC50 by Cheng-Prusoff

T1 sequence (P52699 19-246, looked up, species assumed): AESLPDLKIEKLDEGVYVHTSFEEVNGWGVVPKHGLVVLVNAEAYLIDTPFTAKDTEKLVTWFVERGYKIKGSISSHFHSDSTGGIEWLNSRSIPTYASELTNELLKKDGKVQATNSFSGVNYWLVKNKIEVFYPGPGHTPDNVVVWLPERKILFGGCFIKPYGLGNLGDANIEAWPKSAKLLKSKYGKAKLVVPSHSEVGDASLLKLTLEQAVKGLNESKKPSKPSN

With `N=C(N)NCC[n+]1ccn(CC(=O)Nc2c(F)cc(S(=O)(=O)Nc3scnc3C(=O)[O-])cc2F)c1` [Example 15, 1-(2-carbamimidamidoethyl)-3-[({4-[(4-carboxy-1,3-thiazol-5-yl)sulfamoyl]-2,6-difluorophenyl}carbamoyl)methyl]imidazol-1-ium] the Ki [1, 5] was 1 to 8 µM, the Ki [2] was 0.02 to 0.05 µM and the Ki [3, 6] was less than 0.2 µM. The Ki [4, 7] was less than 0.05 µM.
`Cc1c[n+](C)cn1CC(=O)Nc1ccc(S(=O)(=O)Nc2scnc2C(=O)[O-])cc1F` [Example 6, 1-[({4-[(4-carboxy-1,3-thiazol-5-yl)sulfamoyl]-2-fluorophenyl}carbamoyl)methyl]-3,5-dimethyl-1H-imidazol-3-ium] was tested, and the Ki [1, 5] was 1 to 8 µM, the Ki [2] was 0.05 to 0.2 µM and the Ki [3, 6] was 0.5 to 0.8 µM. The Ki [4, 7] was 0.2 to 0.4 µM.
In the case of `C[n+]1nnn(CC(=O)Nc2ccc(S(=O)(=O)Nc3scnc3C(=O)[O-])cc2F)c1N` [Example 26, 5-amino-1-[({4-[(4-carboxy-1,3-thiazol-5-yl)sulfamoyl]-2-fluorophenyl}carbamoyl)methyl]-4-methyl-1H-1,2,3,4-tetrazol-4-ium], the Ki [1, 5] is reported as 0.5 to 1 µM, the Ki [2] is reported as 0.05 to 0.2 µM and the Ki [3, 6] is reported as 0.2 to 0.5 µM. The Ki [4, 7] was less than 0.05 µM.
With `C[n+]1cn(CC(=O)Nc2ccc(S(=O)(=O)Nc3scnc3C(=O)[O-])cc2F)cn1` [Example 22, 4-[({4-[(4-carboxy-1,3-thiazol-5-yl)sulfamoyl]-2-fluorophenyl}carbamoyl)methyl]-1-methyl-1,2,4-triazol-1-ium] the Ki [1, 5] was 0.5 to 1 µM, the Ki [2] was 0.05 to 0.2 µM and the Ki [3, 6] was 0.2 to 0.5 µM. For the same compound, the Ki [4, 7] was 0.05 to 0.2 µM.
Work on `Cc1cn(CC(=O)Nc2ccc(S(=O)(=O)Nc3scnc3C(=O)[O-])cc2F)c[n+]1C` [Example 7, 1-[({4-[(4-carboxy-1,3-thiazol-5-yl)sulfamoyl]-2-fluorophenyl}carbamoyl)methyl]-3,4-dimethyl-1H-imidazol-3-ium] yielded a Ki [1, 5] of 1 to 8 µM, a Ki [2] of 0.02 to 0.05 µM and a Ki [3, 6] of less than 0.2 µM. It also gave a Ki [4, 7] of 0.2 to 0.4 µM.
`N=C(N)NCC[n+]1ccn(CC(=O)Nc2ccc(S(=O)(=O)Nc3scnc3C(=O)[O-])cc2F)c1` [Example 12, 3-(2-carbamimidamidoethyl)-1-[({4-[(4-carboxy-1,3-thiazol-5-yl)sulfamoyl]-2-fluorophenyl}carbamoyl)methyl]-1H-imidazol-3-ium] gave a Ki [1, 5] of 1 to 8 µM, a Ki [2] of 0.05 to 0.2 µM and a Ki [3, 6] of less than 0.2 µM. The Ki [4, 7] was less than 0.05 µM.
In the case of `N#Cc1cc(S(=O)(=O)Nc2scnc2C(=O)[O-])ccc1NC(=O)Cn1cc[n+](CCNC(=N)N)c1` [Example 19, 3-(2-carbamimidamidoethyl)-1-[({4-[(4-carboxy-1,3-thiazol-5-yl)sulfamoyl]-2-cyanophenyl}carbamoyl)methyl]-1H-imidazol-3-ium], the Ki [1, 5] is reported as 1 to 8 µM, the Ki [2] is reported as 0.02 to 0.05 µM and the Ki [3, 6] is reported as less than 0.2 µM. For the same compound, the Ki [4, 7] was 0.2 to 0.4 µM.
`NCC[n+]1ccn(CC(=O)Nc2ccc(S(=O)(=O)Nc3scnc3C(=O)[O-])cc2F)c1` [Example 11, 3-(2-aminoethyl)-1-[({4-[(4-carboxy-1,3-thiazol-5-yl)sulfamoyl]-2-fluorophenyl}carbamoyl)methyl]-1H-imidazol-3-ium] showed a Ki [1, 5] of 1 to 8 µM, a Ki [2] of 0.02 to 0.05 µM and a Ki [3, 6] of less than 0.2 µM. The Ki [4, 7] was less than 0.05 µM.
Work on `C[n+]1ccn(CC(=O)Nc2ccc(S(=O)(=O)Nc3scnc3C(=O)[O-])cc2F)c1` [Example 1, 1-[({4-[(4-carboxy-1,3-thiazol-5-yl)sulfamoyl]-2-fluorophenyl}carbamoyl)methyl]-3-methyl-1H-imidazol-3-ium] yielded a Ki [1, 5] of 1 to 8 µM, a Ki [2] of 0.05 to 0.2 µM and a Ki [3, 6] of 0.2 to 0.5 µM. It also gave a Ki [4, 7] of less than 0.05 µM.
Compound `NCC[n+]1ccn(CC(=O)Nc2c(F)cc(S(=O)(=O)Nc3scnc3C(=O)[O-])cc2F)c1` [Example 14, 3-(2-aminoethyl)-1-[({4-[(4-carboxy-1,3-thiazol-5-yl)sulfamoyl]-2,6-difluorophenyl}carbamoyl)methyl]-1H-imidazol-3-ium] has a Ki [1, 5] of 1 to 8 µM, a Ki [2] of 0.02 to 0.05 µM and a Ki [3, 6] of less than 0.2 µM. It also gave a Ki [4, 7] of less than 0.05 µM.
For `C[n+]1cccn1CC(=O)Nc1ccc(S(=O)(=O)Nc2scnc2C(=O)[O-])cc1F` [Example 10, 1-[({4-[(4-carboxy-1,3-thiazol-5-yl)sulfamoyl]-2-fluorophenyl}carbamoyl)methyl]-2-methyl-1H-pyrazol-2-ium], the Ki [1, 5] was 1 to 8 µM, the Ki [3, 6] was 0.2 to 0.5 µM and the Ki [4, 7] was 0.05 to 0.2 µM.
`O=C(Cn1cc[n+]2c1COCC2)Nc1ccc(S(=O)(=O)Nc2scnc2C(=O)[O-])cc1F` [Example 5, 1-[({4-[(4-carboxy-1,3-thiazol-5-yl)sulfamoyl]-2-fluorophenyl}carbamoyl)methyl]-1H,5H,6H,8H-4lambda5-imidazo[2,1-c][1,4]oxazin-4-ylium] gave a Ki [1, 5] of 1 to 8 µM, a Ki [2] of 0.05 to 0.2 µM and a Ki [3, 6] of 0.5 to 0.8 µM. The Ki [4, 7] was 0.05 to 0.2 µM.
`Cc1n(CC(=O)Nc2ccc(S(=O)(=O)Nc3scnc3C(=O)[O-])cc2F)cc[n+]1C` [Example 2, 1-[({4-[(4-carboxy-1,3-thiazol-5-yl)sulfamoyl]-2-fluorophenyl}carbamoyl)methyl]-2,3-dimethyl-1H-imidazol-3-ium] gave a Ki [1, 5] of 1 to 8 µM, a Ki [2] of 0.05 to 0.2 µM and a Ki [3, 6] of 0.2 to 0.5 µM. For the same compound, the Ki [4, 7] was 0.05 to 0.2 µM.
For `NCCC[n+]1ccn(CC(=O)Nc2ccc(S(=O)(=O)Nc3scnc3C(=O)[O-])cc2F)c1` [Example 16, 3-(3-aminopropyl)-1-[({4-[(4-carboxy-1,3-thiazol-5-yl)sulfamoyl]-2-fluorophenyl}carbamoyl)methyl]-1H-imidazol-3-ium], the Ki [1, 5] was 1 to 8 µM, the Ki [2] was less than 0.02 µM and the Ki [3, 6] was less than 0.2 µM. It also gave a Ki [4, 7] of less than 0.05 µM.
With `CC[n+]1ccn(CC(=O)Nc2ccc(S(=O)(=O)Nc3scnc3C(=O)[O-])cc2F)n1` [Example 24, 1-[({4-[(4-carboxy-1,3-thiazol-5-yl)sulfamoyl]-2-fluorophenyl}carbamoyl)methyl]-3-ethyl-1H-1,2,3-triazol-3-ium] the Ki [1, 5] was 0.5 to 1 µM, the Ki [2] was 0.05 to 0.2 µM and the Ki [3, 6] was 0.2 to 0.5 µM. For the same compound, the Ki [4, 7] was 0.05 to 0.2 µM.
In the case of `C[n+]1c(N)ccn1CC(=O)Nc1ccc(S(=O)(=O)Nc2scnc2C(=O)[O-])cc1F` [Example 8, 3-amino-1-[({4-[(4-carboxy-1,3-thiazol-5-yl)sulfamoyl]-2-fluorophenyl}carbamoyl)methyl]-2-methyl-1H-pyrazol-2-ium], the Ki [1, 5] is reported as 1 to 8 µM, the Ki [3, 6] is reported as 0.2 to 0.5 µM and the Ki [4, 7] is reported as 0.05 to 0.2 µM.
`C[n+]1ccn(CC(=O)Nc2c(F)cc(S(=O)(=O)Nc3scnc3C(=O)[O-])cc2F)n1` [Example 23, 1-[({4-[(4-carboxy-1,3-thiazol-5-yl)sulfamoyl]-2,6-difluorophenyl}carbamoyl)methyl]-3-methyl-1H-1,2,3-triazol-3-ium] gave a Ki [1, 5] of 1 to 8 µM, a Ki [2] of 0.05 to 0.2 µM and a Ki [3, 6] of 0.2 to 0.5 µM. The Ki [4, 7] was 0.05 to 0.2 µM.
With `C[n+]1ccn(CC(=O)Nc2ccc(S(=O)(=O)Nc3scnc3C(=O)[O-])cc2F)c1N` [Example 3, 2-amino-1-[({4-[(4-carboxy-1,3-thiazol-5-yl)sulfamoyl]-2-fluorophenyl}carbamoyl)methyl]-3-methyl-1H-imidazol-3-ium] the Ki [1, 5] was 1 to 8 µM, the Ki [2] was 0.05 to 0.2 µM and the Ki [3, 6] was 0.2 to 0.5 µM. For the same compound, the Ki [4, 7] was 0.05 to 0.2 µM.
With `CSc1n(CC(=O)Nc2ccc(S(=O)(=O)Nc3scnc3C(=O)[O-])cc2F)cc[n+]1C` [Example 4] the Ki ([1]; purified enzyme, 10mM HEPES pH 7.5, Imipenem 300µM; mean Ki from IC50 by Cheng-Prusoff; read-out: Ki (µM) IMP-1) was 1 to 8 µM, the Ki ([3]; purified enzyme, 10mM HEPES pH 7.5, Imipenem 300µM; mean Ki from IC50 by Cheng-Prusoff; read-out: Ki (µM) VIM-1) was 0.2 to 0.5 µM and the Ki ([4]; purified enzyme, 10mM HEPES pH 7.5, Imipenem 300µM; mean Ki from IC50 by Cheng-Prusoff; read-out: Ki (µM) NDM-1) was 0.05 to 0.2 µM.
Compound `N#Cc1cc(S(=O)(=O)Nc2scnc2C(=O)[O-])ccc1NC(=O)Cn1cc[n+](CCN)c1` [Example 18, 3-(2-aminoethyl)-1-[({4-[(4-carboxy-1,3-thiazol-5-yl)sulfamoyl]-2-cyanophenyl}carbamoyl)methyl]-1H-imidazol-3-ium] has a Ki [1, 5] of 0.5 to 1 µM, a Ki [2] of less than 0.02 µM and a Ki [3, 6] of less than 0.2 µM. The Ki [4, 7] was 0.05 to 0.2 µM.
With `C[n+]1cnn(CC(=O)Nc2ccc(S(=O)(=O)Nc3scnc3C(=O)[O-])cc2F)c1` [Example 25, 1-[({4-[(4-carboxy-1,3-thiazol-5-yl)sulfamoyl]-2-fluorophenyl}carbamoyl)methyl]-4-methyl-1H-1,2,4-triazol-4-ium] the Ki [1, 5] was 1 to 8 µM, the Ki [2] was 0.05 to 0.2 µM and the Ki [3, 6] was 0.2 to 0.5 µM. For the same compound, the Ki [4, 7] was 0.05 to 0.2 µM.
`C[n+]1ccn(CC(=O)Nc2ccc(S(=O)(=O)Nc3scnc3C(=O)[O-])cc2F)n1` [Example 9, 1-[({4-[(4-carboxy-1,3-thiazol-5-yl)sulfamoyl]-2-fluorophenyl}carbamoyl)methyl]-3-methyl-1H-1,2,3-triazol-3-ium] was tested, and the Ki [1, 5] was 1 to 8 µM, the Ki [2] was 0.05 to 0.2 µM and the Ki [3, 6] was 0.2 to 0.5 µM. It also gave a Ki [4, 7] of less than 0.05 µM.
Compound `C[n+]1ccn(CC(=O)Nc2c(F)cc(S(=O)(=O)Nc3scnc3C(=O)[O-])cc2F)c1` [Example 13, 1-[({4-[(4-carboxy-1,3-thiazol-5-yl)sulfamoyl]-2,6-difluorophenyl}carbamoyl)methyl]-3-methyl-1H-imidazol-3-ium] has a Ki [1, 5] of 1 to 8 µM, a Ki [2] of 0.05 to 0.2 µM and a Ki [3, 6] of 0.5 to 0.8 µM. For the same compound, the Ki [4, 7] was 0.05 to 0.2 µM.
